Test results published in ChEMBL document CHEMBL1146300, “High affinity Grb2-SH3 domain ligand incorporating Cbeta-substituted prolines in a Sos-derived decapeptide” (Bioorg Med Chem, 2007).
Active and inactive are the calls of the source. The calls are words filed in the database; no cut-off is given here. Numbered stars: 1 amine (or outer) side, 2 acyl side, 3 side chain; on linkers, the order of the positions; unused ones are H or OH. Square brackets hold non-standard residues; d marks the D form. Peptide text beside a SMILES is read from it. X4 = O=C([C@@H]1C(CS(=O)(=O)c2ccccc2)CCN1[*:1])[*:2]; X3 = C[S+]([O-])CC1CCN([*:1])[C@@H]1C(=O)[*:2]; X2 = O=C(O)CC1CCN([*:1])[C@@H]1C(=O)[*:2]; X6 = CC(C)C1CCN([*:1])[C@@H]1C(=O)[*:2]; X5 = O=C([C@@H]1C(CO)CCN1[*:1])[*:2]; X1 = CC1CCN([*:1])[C@@H]1C(=O)[*:2]

target: Growth factor receptor-bound protein 2 (Homo sapiens, UniProt P62993); experiment: Binding affinity to recombinant Grb2-SH3 domain by fluorescence spectroscopy

Row | Activity | Kd | Molecule
1 | inactive | – | CC(C)[C@H](N)C(=O)N1CCC[C@H]1C(=O)N1CCC[C@H]1C(=O)N1CCC[C@H]1C(=O)N1CCC(CO)[C@H]1C(=O)N1CCC[C@H]1C(=O)N1CCC[C@H]1C(=O)N[C@@H](CCCNC(=N)N)C(=O)N[C@@H](CCCNC(=N)N)C(=O)N[C@@H](CCCNC(=N)N)C(=O)O (stereo partly drawn) (H-VPPP[X5]PPRRR-OH)
2 | inactive | – | CC(C)C1CCN(C(=O)[C@@H]2CCCN2C(=O)[C@@H]2CCCN2C(=O)[C@@H]2CCCN2C(=O)[C@@H](N)C(C)C)[C@@H]1C(=O)N1CCC[C@H]1C(=O)N1CCC[C@H]1C(=O)N[C@@H](CCCNC(=N)N)C(=O)N[C@@H](CCCNC(=N)N)C(=O)N[C@@H](CCCNC(=N)N)C(=O)O (stereo partly drawn) (H-VPPP[X6]PPRRR-OH)
3 | – | 11.6 µM | CC(C)[C@H](N)C(=O)N1CCC[C@H]1C(=O)N1CCC[C@H]1C(=O)N1CCC[C@H]1C(=O)N1CCC(C)[C@H]1C(=O)N1CCC[C@H]1C(=O)N1CCC[C@H]1C(=O)N[C@@H](CCCN=C(N)N)C(=O)N[C@@H](CCCN=C(N)N)C(=O)N[C@@H](CCCN=C(N)N)C(=O)O (stereo partly drawn) (H-VPPP[X1]PPRRR-OH)
4 | inactive | – | CC(C)[C@H](N)C(=O)N1CCC[C@H]1C(=O)N1CCC[C@H]1C(=O)N1CCC[C@H]1C(=O)N1CCC(CS(=O)(=O)c2ccccc2)[C@H]1C(=O)N1CCC[C@H]1C(=O)N1CCC[C@H]1C(=O)N[C@@H](CCCNC(=N)N)C(=O)N[C@@H](CCCNC(=N)N)C(=O)N[C@@H](CCCNC(=N)N)C(=O)O (stereo partly drawn) (H-VPPP[X4]PPRRR-OH)
5 | inactive | – | CC(C)[C@H](N)C(=O)N1CCC[C@H]1C(=O)N1CCC[C@H]1C(=O)N1CCC[C@H]1C(=O)N1CCC(C[S+](C)[O-])[C@H]1C(=O)N1CCC[C@H]1C(=O)N1CCC[C@H]1C(=O)N[C@@H](CCCNC(=N)N)C(=O)N[C@@H](CCCNC(=N)N)C(=O)N[C@@H](CCCNC(=N)N)C(=O)O (stereo partly drawn) (H-VPPP[X3]PPRRR-OH)
6 | – | < 0.52 µM | CC(=O)N[C@H](C(=O)N1CCC[C@H]1C(=O)N1CCC[C@H]1C(=O)N1CCC[C@H]1C(=O)N1CCC(C)[C@H]1C(=O)N1CCC[C@H]1C(=O)N1CCC[C@H]1C(=O)N[C@@H](CCCNC(=N)N)C(=O)N[C@@H](CCCNC(=N)N)C(=O)N[C@@H](CCCNC(=N)N)C(=O)N[C@H](C(=O)N1CCC[C@H]1C(=O)N1CCC[C@H]1C(=O)N1CCC[C@H]1C(=O)N1CCC(C)[C@H]1C(=O)N1CCC[C@H]1C(=O)N1CCC[C@H]1C(=O)N[C@@H](CCCNC(=N)N)C(=O)N[C@@H](CCCNC(=N)N)C(=O)N[C@@H](CCCNC(=N)N)C(=O)N[C@@H](CCCCN)C(N)=O)C(C)C)C(C)C (stereo partly drawn) (Ac-VPPP[X1]PPRRRVPPP[X1]PPRRRK-NH2)
7 | inactive | – | CC(C)[C@H](N)C(=O)N1CCC[C@H]1C(=O)N1CCC[C@H]1C(=O)N1CCC[C@H]1C(=O)N1CCC(CC(=O)O)[C@H]1C(=O)N1CCC[C@H]1C(=O)N1CCC[C@H]1C(=O)N[C@@H](CCCNC(=N)N)C(=O)N[C@@H](CCCNC(=N)N)C(=O)N[C@@H](CCCNC(=N)N)C(=O)O (stereo partly drawn) (H-VPPP[X2]PPRRR-OH)
8 | inactive | – | H-VPPPPPPRRR-OH
